ChEMBL document CHEMBL4507276 (2021)

What was measured:
[1] = target: Sigma intracellular receptor 2 (Homo sapiens) (UniProt Q5BJF2); settings: Compound concentration 10.0 uM
[2] = target: Myosin light chain kinase (Homo sapiens) (UniProt Q32MK0); settings: Compound concentration 1000.0 nM
[3] = target: Membrane-associated tyrosine- and threonine-specific cdc2-inhibitory kinase (Homo sapiens) (UniProt Q99640); settings: Compound concentration 1000.0 nM
[4] = target: Receptor tyrosine-protein kinase erbB-4 (Homo sapiens) (UniProt Q15303); settings: Compound concentration 1000.0 nM
Chain of Receptor tyrosine-protein kinase erbB-4 (Homo sapiens) (Q15303 whole entry): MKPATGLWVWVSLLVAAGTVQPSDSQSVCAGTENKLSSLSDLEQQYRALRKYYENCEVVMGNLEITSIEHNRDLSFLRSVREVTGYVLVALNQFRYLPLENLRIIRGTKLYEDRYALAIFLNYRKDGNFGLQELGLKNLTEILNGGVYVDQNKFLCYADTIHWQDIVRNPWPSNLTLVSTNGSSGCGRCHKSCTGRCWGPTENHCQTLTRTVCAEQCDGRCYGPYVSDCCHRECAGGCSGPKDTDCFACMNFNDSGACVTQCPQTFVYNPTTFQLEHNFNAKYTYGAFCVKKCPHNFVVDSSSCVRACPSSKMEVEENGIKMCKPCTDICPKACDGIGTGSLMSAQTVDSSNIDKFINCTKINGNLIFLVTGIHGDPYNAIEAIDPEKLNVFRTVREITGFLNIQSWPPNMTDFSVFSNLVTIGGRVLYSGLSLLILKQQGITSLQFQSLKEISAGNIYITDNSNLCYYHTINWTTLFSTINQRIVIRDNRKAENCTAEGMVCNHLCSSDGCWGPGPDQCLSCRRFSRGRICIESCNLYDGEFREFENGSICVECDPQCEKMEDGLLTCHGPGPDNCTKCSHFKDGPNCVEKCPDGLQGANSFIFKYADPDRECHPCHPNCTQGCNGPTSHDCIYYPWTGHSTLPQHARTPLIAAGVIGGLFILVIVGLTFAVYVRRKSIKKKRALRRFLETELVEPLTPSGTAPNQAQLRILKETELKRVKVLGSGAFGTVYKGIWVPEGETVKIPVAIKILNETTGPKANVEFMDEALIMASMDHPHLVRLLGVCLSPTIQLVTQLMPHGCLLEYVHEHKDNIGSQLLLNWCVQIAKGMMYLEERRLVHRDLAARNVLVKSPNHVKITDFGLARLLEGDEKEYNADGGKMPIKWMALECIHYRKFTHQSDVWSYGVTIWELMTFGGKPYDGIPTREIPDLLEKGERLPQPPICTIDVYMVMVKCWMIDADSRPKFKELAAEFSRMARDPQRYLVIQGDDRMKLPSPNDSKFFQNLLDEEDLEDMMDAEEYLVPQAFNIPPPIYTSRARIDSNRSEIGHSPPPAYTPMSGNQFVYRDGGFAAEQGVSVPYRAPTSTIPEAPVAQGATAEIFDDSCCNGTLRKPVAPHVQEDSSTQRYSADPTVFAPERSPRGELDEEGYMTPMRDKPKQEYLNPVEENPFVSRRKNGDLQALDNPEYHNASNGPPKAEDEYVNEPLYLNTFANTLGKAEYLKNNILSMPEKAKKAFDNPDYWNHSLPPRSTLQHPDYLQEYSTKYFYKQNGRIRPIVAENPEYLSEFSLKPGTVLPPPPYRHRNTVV

[5] = target: T1, Protein kinase C iota type (Homo sapiens) (UniProt P41743); settings: Compound concentration 1000.0 nM
T1 sequence (whole entry): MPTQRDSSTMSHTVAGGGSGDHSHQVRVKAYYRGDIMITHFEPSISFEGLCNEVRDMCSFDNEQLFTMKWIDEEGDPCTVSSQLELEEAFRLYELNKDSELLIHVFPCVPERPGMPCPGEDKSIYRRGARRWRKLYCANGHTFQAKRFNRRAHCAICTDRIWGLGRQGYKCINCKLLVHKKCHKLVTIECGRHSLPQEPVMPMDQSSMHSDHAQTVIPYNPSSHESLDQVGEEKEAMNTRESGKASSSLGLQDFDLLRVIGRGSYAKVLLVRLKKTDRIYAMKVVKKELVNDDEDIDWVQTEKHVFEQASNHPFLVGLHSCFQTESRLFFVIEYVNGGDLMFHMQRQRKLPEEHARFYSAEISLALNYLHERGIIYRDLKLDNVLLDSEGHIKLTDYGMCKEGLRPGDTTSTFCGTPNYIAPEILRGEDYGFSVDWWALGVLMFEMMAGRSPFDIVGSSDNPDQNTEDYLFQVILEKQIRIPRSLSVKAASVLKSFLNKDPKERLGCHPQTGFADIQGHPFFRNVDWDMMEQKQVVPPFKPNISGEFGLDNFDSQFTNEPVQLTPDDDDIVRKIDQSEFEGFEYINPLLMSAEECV

[6] = target: Receptor-interacting serine/threonine-protein kinase 4 (Homo sapiens) (UniProt P57078); settings: Compound concentration 1000.0 nM
[7] = target: Cyclin-dependent kinase-like 3 (Homo sapiens) (UniProt Q8IVW4); settings: Compound concentration 1000.0 nM
Chain of Cyclin-dependent kinase-like 3 (Homo sapiens) (Q8IVW4 whole entry, looked up): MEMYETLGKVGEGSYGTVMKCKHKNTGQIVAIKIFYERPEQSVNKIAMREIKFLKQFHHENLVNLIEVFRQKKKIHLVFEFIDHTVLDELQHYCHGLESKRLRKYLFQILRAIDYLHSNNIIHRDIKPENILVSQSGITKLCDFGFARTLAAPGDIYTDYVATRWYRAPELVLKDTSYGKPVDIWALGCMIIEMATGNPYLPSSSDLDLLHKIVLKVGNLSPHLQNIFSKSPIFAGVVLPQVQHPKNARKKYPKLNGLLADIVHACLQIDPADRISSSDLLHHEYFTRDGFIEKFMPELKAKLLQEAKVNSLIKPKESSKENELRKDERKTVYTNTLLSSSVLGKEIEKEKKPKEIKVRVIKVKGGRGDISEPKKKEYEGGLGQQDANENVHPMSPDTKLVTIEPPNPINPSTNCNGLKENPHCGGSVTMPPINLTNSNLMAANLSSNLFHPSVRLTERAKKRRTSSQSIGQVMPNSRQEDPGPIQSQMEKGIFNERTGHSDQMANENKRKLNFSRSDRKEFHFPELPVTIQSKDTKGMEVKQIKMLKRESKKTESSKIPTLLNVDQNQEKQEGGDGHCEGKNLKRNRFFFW

[8] = target: Ribosomal protein S6 kinase alpha-1 (Homo sapiens) (UniProt Q15418); settings: Compound concentration 1000.0 nM
[9] = target: Tyrosine-protein kinase HCK (Homo sapiens) (UniProt P08631); settings: Compound concentration 1000.0 nM
[10] = target: Serine/threonine-protein kinase 33 (Homo sapiens) (UniProt Q9BYT3); settings: Compound concentration 1000.0 nM
Chain of Serine/threonine-protein kinase 33 (Homo sapiens) (Q9BYT3 whole entry, looked up): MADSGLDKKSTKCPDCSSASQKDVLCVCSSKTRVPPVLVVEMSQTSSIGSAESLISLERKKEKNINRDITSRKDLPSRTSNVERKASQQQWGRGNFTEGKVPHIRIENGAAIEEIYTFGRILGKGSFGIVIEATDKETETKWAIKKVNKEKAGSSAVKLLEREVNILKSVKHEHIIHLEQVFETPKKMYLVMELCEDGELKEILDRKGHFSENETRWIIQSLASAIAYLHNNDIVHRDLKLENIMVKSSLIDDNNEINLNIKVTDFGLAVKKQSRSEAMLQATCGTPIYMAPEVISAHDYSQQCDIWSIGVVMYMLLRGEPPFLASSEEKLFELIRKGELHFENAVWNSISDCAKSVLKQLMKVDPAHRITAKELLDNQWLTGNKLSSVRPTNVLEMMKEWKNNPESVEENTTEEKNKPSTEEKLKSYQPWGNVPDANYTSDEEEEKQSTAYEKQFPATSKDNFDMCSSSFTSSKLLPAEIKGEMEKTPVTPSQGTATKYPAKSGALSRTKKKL

[11] = target: Serine/threonine-protein kinase TBK1 (Homo sapiens) (UniProt Q9UHD2); settings: Compound concentration 1000.0 nM
Chain of Serine/threonine-protein kinase TBK1 (Homo sapiens) (Q9UHD2 whole entry): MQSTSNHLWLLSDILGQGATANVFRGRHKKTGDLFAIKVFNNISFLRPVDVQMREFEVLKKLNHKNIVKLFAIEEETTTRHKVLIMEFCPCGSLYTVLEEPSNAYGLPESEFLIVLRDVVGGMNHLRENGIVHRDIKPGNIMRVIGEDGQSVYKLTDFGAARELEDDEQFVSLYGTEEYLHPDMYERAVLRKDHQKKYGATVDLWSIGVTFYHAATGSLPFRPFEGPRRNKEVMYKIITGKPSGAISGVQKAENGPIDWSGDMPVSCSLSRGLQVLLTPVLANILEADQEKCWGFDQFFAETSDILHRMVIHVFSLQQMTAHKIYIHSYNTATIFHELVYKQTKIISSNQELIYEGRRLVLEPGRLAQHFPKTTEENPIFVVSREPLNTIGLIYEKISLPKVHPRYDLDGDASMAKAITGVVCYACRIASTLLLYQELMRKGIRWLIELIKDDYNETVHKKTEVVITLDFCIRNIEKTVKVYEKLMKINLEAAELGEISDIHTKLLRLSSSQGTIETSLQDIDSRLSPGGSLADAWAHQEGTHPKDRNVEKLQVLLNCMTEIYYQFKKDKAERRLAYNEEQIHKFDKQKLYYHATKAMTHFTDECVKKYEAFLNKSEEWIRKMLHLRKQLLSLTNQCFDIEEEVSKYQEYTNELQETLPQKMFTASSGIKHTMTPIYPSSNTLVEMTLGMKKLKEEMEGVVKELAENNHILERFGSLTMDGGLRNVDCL

[12] = target: Serine/threonine-protein kinase ULK1 (Homo sapiens) (UniProt O75385); settings: Compound concentration 1000.0 nM
Chain of Serine/threonine-protein kinase ULK1 (Homo sapiens) (O75385 whole entry): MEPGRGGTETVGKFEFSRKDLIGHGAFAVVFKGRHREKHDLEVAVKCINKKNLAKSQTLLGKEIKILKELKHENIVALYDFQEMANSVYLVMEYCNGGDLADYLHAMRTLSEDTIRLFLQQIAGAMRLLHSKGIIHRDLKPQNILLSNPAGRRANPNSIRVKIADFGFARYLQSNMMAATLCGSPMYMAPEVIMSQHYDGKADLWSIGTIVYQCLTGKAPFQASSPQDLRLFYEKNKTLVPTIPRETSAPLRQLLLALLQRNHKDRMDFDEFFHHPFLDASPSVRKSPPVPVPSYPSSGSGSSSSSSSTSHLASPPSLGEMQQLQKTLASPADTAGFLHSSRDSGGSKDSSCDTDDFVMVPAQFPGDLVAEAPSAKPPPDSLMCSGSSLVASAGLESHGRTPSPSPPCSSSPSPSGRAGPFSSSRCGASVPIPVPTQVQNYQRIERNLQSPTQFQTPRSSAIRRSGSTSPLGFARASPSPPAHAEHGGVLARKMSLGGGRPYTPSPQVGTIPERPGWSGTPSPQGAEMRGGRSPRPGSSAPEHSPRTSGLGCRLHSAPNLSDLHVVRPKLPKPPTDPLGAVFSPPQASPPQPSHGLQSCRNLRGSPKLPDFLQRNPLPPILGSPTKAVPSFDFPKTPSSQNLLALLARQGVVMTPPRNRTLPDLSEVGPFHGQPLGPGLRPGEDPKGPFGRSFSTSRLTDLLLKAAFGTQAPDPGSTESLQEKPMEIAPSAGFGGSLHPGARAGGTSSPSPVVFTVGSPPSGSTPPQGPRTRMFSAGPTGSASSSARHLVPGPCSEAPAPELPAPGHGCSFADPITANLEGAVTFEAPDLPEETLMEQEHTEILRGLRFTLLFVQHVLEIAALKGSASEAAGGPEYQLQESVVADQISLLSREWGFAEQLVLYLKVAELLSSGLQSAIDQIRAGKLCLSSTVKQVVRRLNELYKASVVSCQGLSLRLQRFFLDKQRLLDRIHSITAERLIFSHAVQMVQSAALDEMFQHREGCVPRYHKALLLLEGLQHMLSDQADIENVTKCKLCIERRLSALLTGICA

[13] = target: T2, cGMP-dependent protein kinase 2 (Homo sapiens) (UniProt Q13237); settings: Compound concentration 1000.0 nM
T2 sequence (whole entry): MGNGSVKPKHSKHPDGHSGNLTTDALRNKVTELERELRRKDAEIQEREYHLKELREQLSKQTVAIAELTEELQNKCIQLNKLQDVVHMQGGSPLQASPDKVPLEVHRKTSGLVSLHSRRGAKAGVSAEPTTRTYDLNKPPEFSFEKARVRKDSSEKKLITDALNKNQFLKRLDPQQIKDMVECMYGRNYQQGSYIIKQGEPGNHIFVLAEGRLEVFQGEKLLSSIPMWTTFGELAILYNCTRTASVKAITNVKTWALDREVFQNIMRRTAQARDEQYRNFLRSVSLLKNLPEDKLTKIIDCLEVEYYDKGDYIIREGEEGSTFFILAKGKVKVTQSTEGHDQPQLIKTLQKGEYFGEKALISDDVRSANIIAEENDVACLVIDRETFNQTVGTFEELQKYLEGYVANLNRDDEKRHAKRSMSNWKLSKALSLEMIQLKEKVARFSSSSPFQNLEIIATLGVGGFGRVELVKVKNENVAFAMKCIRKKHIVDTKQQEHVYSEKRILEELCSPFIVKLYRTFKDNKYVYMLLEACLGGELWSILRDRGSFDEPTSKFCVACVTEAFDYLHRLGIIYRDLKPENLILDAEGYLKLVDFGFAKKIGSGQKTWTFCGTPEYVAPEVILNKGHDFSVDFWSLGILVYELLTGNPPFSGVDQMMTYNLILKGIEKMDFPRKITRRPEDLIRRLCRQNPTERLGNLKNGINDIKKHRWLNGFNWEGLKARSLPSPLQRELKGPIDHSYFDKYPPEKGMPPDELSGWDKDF

[14] = target: TRAF2 and NCK-interacting protein kinase (Homo sapiens) (UniProt Q9UKE5); settings: Compound concentration 1000.0 nM
[15] = target: Fibroblast growth factor receptor 4 (Homo sapiens) (UniProt P22455); settings: Compound concentration 1000.0 nM

Chain of Myosin light chain kinase (Homo sapiens) (Q32MK0 whole entry): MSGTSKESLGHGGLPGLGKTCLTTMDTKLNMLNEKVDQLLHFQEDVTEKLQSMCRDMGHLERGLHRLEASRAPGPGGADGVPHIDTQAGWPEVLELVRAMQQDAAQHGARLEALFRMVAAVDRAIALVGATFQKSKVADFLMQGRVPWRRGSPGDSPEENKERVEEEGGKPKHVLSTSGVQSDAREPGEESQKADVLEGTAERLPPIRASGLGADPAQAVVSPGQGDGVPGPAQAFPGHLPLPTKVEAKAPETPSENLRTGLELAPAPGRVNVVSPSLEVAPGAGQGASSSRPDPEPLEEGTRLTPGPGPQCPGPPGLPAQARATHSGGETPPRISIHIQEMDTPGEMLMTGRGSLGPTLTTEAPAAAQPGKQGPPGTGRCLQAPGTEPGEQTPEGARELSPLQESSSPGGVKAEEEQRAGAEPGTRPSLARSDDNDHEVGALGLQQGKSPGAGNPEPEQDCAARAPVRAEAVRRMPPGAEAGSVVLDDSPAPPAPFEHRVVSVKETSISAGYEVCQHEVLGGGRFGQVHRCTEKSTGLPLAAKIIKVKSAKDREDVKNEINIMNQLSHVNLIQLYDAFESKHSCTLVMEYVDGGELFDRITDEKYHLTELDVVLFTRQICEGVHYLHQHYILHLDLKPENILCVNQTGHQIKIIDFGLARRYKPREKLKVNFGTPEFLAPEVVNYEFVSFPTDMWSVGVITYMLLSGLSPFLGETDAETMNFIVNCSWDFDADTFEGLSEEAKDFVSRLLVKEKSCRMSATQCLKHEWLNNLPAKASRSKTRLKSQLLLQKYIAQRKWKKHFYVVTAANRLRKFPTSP

CN(C)C(=O)Cn1cc(-c2nc(C3(c4ccc(-c5cnc(N)nc5)cc4)CC3)no2)cn1 [BI 0153]
inactive: inhibition [1] 25% | residual activity [2] 100% | residual activity [3] 90% | residual activity [4] 100% | residual activity [5] 100% | residual activity [6] 70% | residual activity [7] 80% | residual activity [8] 100% | residual activity [9] 100% | residual activity [10] 99% | residual activity [11] 87% | residual activity [12] 75% | residual activity [13] 100% | residual activity [14] 100% | residual activity [15] 100%

CN(C)C(=O)Cn1cc(-c2nc([C@@](C)(c3ccc(-c4cnc(N)nc4)cc3)C3CC3)no2)cn1 [BI 665915]
inactive: inhibition [1] 10.1% | residual activity [2] 100% | residual activity [3] 88% | residual activity [4] 100% | residual activity [5] 93% | residual activity [6] 93% | residual activity [7] 94% | residual activity [8] 99% | residual activity [9] 79% | residual activity [10] 100% | residual activity [11] 85% | residual activity [12] 77% | residual activity [13] 85% | residual activity [14] 100% | residual activity [15] 88%
